Source: PubChem BioAssay (NCI)
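Assay format: 96-well plates, 48-hour exposure. Abbreviation: GI50, concentration required for 50% inhibition of growth. The concentration for full growth arrest is given as TGI.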

Columns and labels:
Assay in all cases: NCI-60 cell line screen, 48 h
HCT-15 colon = system: HCT-15 colon
K-562 leukemia = system: K-562 leukemia
MOLT-4 leukemia = system: MOLT-4 leukemia
OVCAR-8 ovarian = system: OVCAR-8 ovarian
SF-295 CNS = system: SF-295 CNS
SK-MEL-28 melanoma = system: SK-MEL-28 melanoma
SNB-75 CNS = system: SNB-75 CNS
UACC-257 melanoma = system: UACC-257 melanoma
UO-31 renal = system: UO-31 renal
RPMI-8226 leukemia = system: RPMI-8226 leukemia

SMILES | GI50 (HCT-15 colon) [µM] | TGI (HCT-15 colon) [µM] | GI50 (K-562 leukemia) [µM] | TGI (K-562 leukemia) [µM] | GI50 (MOLT-4 leukemia) [µM] | TGI (MOLT-4 leukemia) [µM] | GI50 (OVCAR-8 ovarian) [µM] | TGI (OVCAR-8 ovarian) [µM] | GI50 (SF-295 CNS) [µM] | TGI (SF-295 CNS) [µM] | GI50 (SK-MEL-28 melanoma) [µM] | TGI (SK-MEL-28 melanoma) [µM] | GI50 (SNB-75 CNS) [µM] | TGI (SNB-75 CNS) [µM] | GI50 (UACC-257 melanoma) [µM] | TGI (UACC-257 melanoma) [µM] | GI50 (UO-31 renal) [µM] | TGI (UO-31 renal) [µM] | GI50 (RPMI-8226 leukemia) [µM] | TGI (RPMI-8226 leukemia) [µM]
COc1ccc(Nc2ncccc2/C=C/C(=O)c2cc(OC)c(OC)c(OC)c2)cc1 | 1.66 | 5.06 | 0.783 | 3.51 | 2.09 | 5.45 | 1.56 | 4.22 | 1.85 | 5.59 | 1.37 | 2.66 | 1.15 | 2.37 | 1.53 | 2.92 | 1.12 | 2.33 | – | –
Nc1ccc(-c2nc3ccccc3[nH]2)c(O)c1 | > 100 | > 100 | 31.5 | > 100 | 39.7 | > 100 | 42.3 | > 100 | 26.5 | 63.4 | 53.9 | > 100 | 87.2 | > 100 | 18.6 | 49.2 | 43.8 | > 100 | 17 | 52.3
CC(=NCCN(CCN=C(C)c1c(O)cc(C)oc1=O)CCN=C(C)c1c(O)cc(C)oc1=O)c1c(O)cc(C)oc1=O | – | > 100 | – | > 100 | – | > 100 | – | > 100 | – | > 100 | – | > 100 | – | > 100 | – | > 100 | – | > 100 | – | > 100
OCCN(CCO)c1cccc(N(CCO)CCO)c1 | – | > 100 | – | > 100 | – | > 100 | – | > 100 | – | > 100 | – | > 100 | – | > 100 | – | > 100 | – | 92.2 | – | > 100
C[N+](C)([O-])CCCNc1c2ccccc2nc2cccc([N+](=O)[O-])c12 | – | 4.93 | – | > 100 | – | – | – | 20.7 | – | 15 | – | – | – | 1.4 | – | 2.25 | – | 4.34 | – | –
Nc1c(C(=O)c2cccc(-c3ccc[n+]([O-])c3)c2)cnn1-c1ccc(F)cc1F | > 25 | > 25 | > 25 | > 25 | > 25 | > 25 | > 25 | > 25 | > 25 | > 25 | > 25 | > 25 | > 25 | > 25 | > 25 | > 25 | > 25 | > 25 | > 25 | > 25
O=C(Nc1ccc(Cl)cc1)c1cc2c(cc1O)[nH]c1ccccc12 | 3.24 | 13.1 | 4.28 | > 100 | 4.18 | 47.4 | 3.25 | 12.9 | 1.67 | 3.87 | 4.41 | 15.5 | 3.23 | 8.78 | 2.48 | 6.66 | 2.86 | 12.9 | 2.71 | 8.45
COc1ccccc1/C=C1\CCC(CNc2ccc(Cl)cc2)C1=O (stereo unspecified) | – | 7.31 | – | 19 | – | 27.4 | – | 20.7 | – | 15.4 | – | 26.4 | – | 29.9 | – | 26.7 | – | 16.1 | – | 6.72
COc1ccc(-c2nsc3c2NC(=O)CC3c2ccc3c(c2)OCO3)cc1 (stereo unspecified) | 0.493 | > 100 | 0.408 | > 100 | 1.29 | 18.7 | 3.04 | > 100 | 1.92 | 25.9 | 5.28 | > 100 | 1.49 | 9.97 | 10.8 | > 100 | 5.09 | > 100 | 2.51 | > 100
Cn1cc(NC(=O)c2cc(NC(=O)Nc3cc(C(=O)Nc4cc(C(=O)NCCC(=N)N)n(C)c4)n(C)c3)cn2C)cc1C(=O)NCCC(=N)N | – | > 100 | – | > 100 | – | > 100 | – | 50 | – | 86 | – | > 100 | – | 67.2 | – | 45.5 | – | > 100 | – | –
COc1cc(N=Nc2ccccc2)cc(/C=N\[N-]C(N)=S)c1[O-].COc1cc(N=Nc2ccccc2)cc(/C=N\[N-]C(N)=S)c1[O-].[Fe+4] | – | – | 16.1 | > 100 | 5.59 | 44.9 | 29.1 | > 100 | – | – | 24.4 | > 100 | 35.2 | > 100 | > 100 | > 100 | 30.6 | > 100 | 18.2 | > 100
O=CN1N=C(c2ccc(Nc3ccnc4cc(Cl)ccc34)cc2)CC1c1ccccc1 (stereo unspecified) | 2.54 | 14.4 | – | – | 2.28 | 6.4 | 4.53 | > 100 | 2.41 | 8.91 | 8.35 | 77.7 | 5.03 | > 100 | 10.1 | > 100 | 3.81 | > 100 | 2.55 | 12.3
O=C1c2ccccc2-c2nccc3cc(Cl)nc1c23 | – | – | 0.665 | 5.24 | 2.21 | > 26.8 | – | – | 4.61 | > 88.9 | 2.22 | 15.8 | 1.93 | 9.56 | – | – | – | – | 0.705 | 3.35
ON(CCc1ccncc1)Cc1ccccc1 | – | > 100 | – | > 100 | – | > 100 | – | > 100 | – | > 100 | – | > 100 | – | > 100 | – | – | – | > 100 | – | > 100
Oc1ccc2occ3c2c1CCC3 | – | > 100 | – | > 100 | – | > 100 | – | > 100 | – | > 100 | – | > 100 | – | > 100 | – | > 100 | – | – | – | > 100
O=Nc1c(-c2cccc([N+](=O)[O-])c2)nc2cnccn12 | – | 30.7 | – | 49.2 | – | 27.6 | – | 53.8 | – | > 100 | – | 50.3 | – | > 100 | – | 41 | – | 25.2 | – | –
COc1ccc(S(=O)(=O)N/N=C/CN2C(=O)c3ccccc3C2=O)cc1OC | – | > 100 | – | > 100 | – | > 100 | – | > 100 | – | > 100 | – | – | – | > 100 | – | > 100 | – | > 100 | – | > 100
